Experimental data as given in patent US20040219105A1, “Human hookworm model and method for maintaining human hookworm in a non-human primate” (priority 2003, published 2004).

Tested on: whole blood basophils
Assay: Whole blood basophil histamine release (Histamine Assay Kit)
Assay type: cell-based, marmoset (Callithrix jacchus)
Conditions: whole blood of hookworm-infected animals; 5 out of 6 animals
Method: Furthermore, whole blood basophils collected from the animals were challenged for their ability to release histamine. One hundred (100) μl of whole blood was collected from the primates into heparinized tubes and the volume was made up to 500 μl using PIPES buffer (0.01 M Piperazine-N′N-bis[2-ethaneculfonic acid], 0.14 M sodium acetate, 5 mM potassium acetate, 0.1% glucose, 1 mM CaCl2 and 0.03% human serum albumin, pH 7.4). Spontaneous histamine release was assessed following incubation for 1 h at 37° C., while total histamine release was assessed when 50 μl of whole blood in 450 μl dH2O was freeze-thawed three times. […] Histamine released in each whole blood challenge was detected using a Histamine Assay Kit (Hycor Biomedical Ltd.). […] Antibody binding was visualised by the addition of 100 μl of 1 mg/ml of p-nitrophenyl phosphate (pNPP) substrate The plates were developed for 1 h at 37° C. and the absorbance measured at 405 nm using a Dynex MRX absorbance microplate reader (DYNEX Technologies, Chantilly, Va.). For all samples and calibrators the percentage binding was determined by the following: [formula]
A standard curve was constructed by plotting the Percentage Binding against concentration for each histamine calibrator, and the levels of histamine in each challenge were determined from this curve.

calreticulin was tested, and the basophil histamine release was “significant histamine release”.
